Measured values as given in patent publication US20250017950A1, “COMPOUNDS FOR TREATING MITOCHONDRIAL DNA DISORDERS” (UCL BUSINESS LTD, priority 2021, published 2025).

System: fibroblasts (P1, P2)
Test: Quantification of the mtDNA copy number
Assay type: cell-based, human
Conditions: 2DG 48 h and 4 weeks
Protocol: The mtDNA copy number was quantified as follows: after DNA isolation, real-time quantitative PCR was performed in triplicates on 384-Well Reaction Plates (Applied Biosystems) in final volumes of 10 μL. Each reaction contained 20 ng of DNA template, 1× Power SYBR-Green PCR Master Mix (Applied Biosystems) and 0.5 μM of forward and reverse primers. Mitochondrial and nuclear DNA were amplified using primers specific to regions of human COX2 and APP1 genes. Changes in the mtDNA copy number were determined by using the 2-ΔΔCt method and represented as fold-change relative to the mean value for vehicle-treated cells analysed in parallel (Dalla Rosa, I. et al., PLoS Genet 12, e1005779 (2016)).

## O=CC[C@@H](O)[C@H](O)[C@H](O)CO [2DG, 2-deoxy-D-glucose]
  mtDNA copy number: not associated with any significant change in mtDNA copy number
